Tests used:
CDK1/Cyclin B = biological target: T1, CDK1/Cyclin B (Homo sapiens, UniProt P06493); experiment: Enzymatic assay for CDK1 (FRET based LANCE Ultra kinase assay); format: biochemical; conditions: read-out: CDK1 enzymatic activity (IC50 range)
T1 construct: purchased Invitrogen PR4768C
Protocol: (§1) Enzymatic Binding Assay Protocol for CDK1, CDK2, CDK5 and CDK7
(§2) Inhibition activity of the respective compound on CDK kinase under Km value of ATP was tested in FRET based The LANCE® Ultra kinase assay (Perkin Elmer), which uses a ULight™-labeled peptide substrate and an appropriate Europium-labeled anti-phospho-antibody. Test compounds were made with DMSO solutions, and then 4-fold serial dilutions for 8 doses were prepared using automated liquid handler (POD810, LABCYTE) and 80 nL/well of diluted compound solutions were added into the 384-well plates (Greiner, Cat #784075). And then 68 nM of ULight-MBP peptide (Perkin Elmer, Cat #TRF0109-M) and 5 ul/well of ATP (Sigma, Cat #A7699) were added to the plate. After 1 min centrifugation at 1000 rpm, Purified CDKs/Cyclin complex were added following concentrations respectively. 24 uM for CDK1/Cyclin B (Invitrogen, Cat #PR4768C), 22 uM for CDK2/Cyclin A (Invitrogen, Cat #PV6290), 10 uM for CDK5/p25 (Invitrogen, Cat #PR8543B) and […] for CDK7/Cyclin H/MNAT1 (Invitrogen, Cat #PR6749B) were added to the each corresponding plate for CDK1, CDK2, CDK5 and CDK7. Incubate at 23° C. for 60 min and then Eu-labeled anti-phospho-Myelin Basic Protein (PE, Cat #TRF0201-M) and EDTA (Invitrogen, Cat #15575038) mixture in Lance Detection Buffer (Perkin Elmer, Cat #CR97100) was added in each well. After additional incubation at 23° C. for 60 min, test articles were measured the fluorescence using Envision leader (Perkin Elmer, USA) [Laser as excitation light; […] as the first and the second emission filter]. Data was analyzed using XL Fit software.

CDK2/Cyclin A = biological target: T2, CDK2/Cyclin A (Homo sapiens, UniProt P24941); experiment: Enzymatic assay for CDK2 (FRET based LANCE Ultra kinase assay); format: biochemical; conditions: read-out: CDK2 enzymatic activity (IC50 range)
T2 construct: purchased Invitrogen PV6290
Protocol: as §1, §2

CDK5/p25 = biological target: T3, CDK5/p25 (Homo sapiens, UniProt Q00535); experiment: Enzymatic assay for CDK5 (FRET based LANCE Ultra kinase assay); format: biochemical; conditions: read-out: CDK5 enzymatic activity (IC50 range)
T3 construct: purchased Invitrogen PR8543B
Protocol: as §1, §2

CDK7/Cyclin H/MNAT1 = biological target: T4, CDK7/Cyclin H/MNAT1 (Homo sapiens, UniProt P50613); experiment: Enzymatic assay for CDK7 (FRET based LANCE Ultra kinase assay); format: biochemical; conditions: for IC50: read-out: CDK7 enzymatic activity (IC50 range)
T4 construct: purchased Invitrogen PR6749B
Protocol: as §1
Inhibition activity of the respective compound on CDK kinase under Km value of ATP was tested in FRET based The LANCE® Ultra kinase assay (Perkin Elmer), which uses a ULight™-labeled peptide substrate and an appropriate Europium-labeled anti-phospho-antibody. […] After 1 min centrifugation at 1000 rpm, Purified CDKs/Cyclin complex were added following concentrations respectively. […] Data was analyzed using XL Fit software.

HCT116 = experiment: Cellular HCT116 viability assay (CellTiter-Glo, 72 hours); format: cell-based; conditions: Homo sapiens, HCT-116
Protocol: (§3) All cell lines were routinely tested for mycoplasma.
(§4) The effect of the CDK7 inhibitor to inhibit the growth of target cancer cells was evaluated through the 72 hours time period of viability assay. Briefly, the candidate cell line ware plated in 96 well plate at the following density of cells respectively. […] DMSO solvent without compound served as a control and final DMSO concentration less than 0.1%. After 72 hours of incubation at 37° C., 5% CO2 incubator, cells were analyzed for the viability using the CellTiter-Glo Luminescent Cell Viability Assay (Promega, Cat #G7570). All viability assays were performed in duplicate and Luminescence was read using an Envision (Perkin Elmer, USA). Data was analyzed using XLfit software.

H460 = experiment: Cellular H460 viability assay (CellTiter-Glo, 72 hours); format: cell-based; conditions: Homo sapiens, NCI-H460
Protocol: as §3, §4

MV4-11 = experiment: Cellular MV4-11 viability assay (CellTiter-Glo, 72 hours); format: cell-based; conditions: Homo sapiens
Protocol: as §3, §4

T1 sequence (P06493 whole entry): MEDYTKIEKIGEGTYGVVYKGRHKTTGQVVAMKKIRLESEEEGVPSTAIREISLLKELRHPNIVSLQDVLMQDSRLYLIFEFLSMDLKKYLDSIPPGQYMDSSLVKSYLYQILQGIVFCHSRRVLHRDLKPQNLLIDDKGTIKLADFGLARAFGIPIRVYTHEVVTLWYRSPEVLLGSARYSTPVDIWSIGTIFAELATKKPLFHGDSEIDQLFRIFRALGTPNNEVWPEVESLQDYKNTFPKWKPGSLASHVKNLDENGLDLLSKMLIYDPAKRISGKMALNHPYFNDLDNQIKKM
T1 sequence (P14635 whole entry partner): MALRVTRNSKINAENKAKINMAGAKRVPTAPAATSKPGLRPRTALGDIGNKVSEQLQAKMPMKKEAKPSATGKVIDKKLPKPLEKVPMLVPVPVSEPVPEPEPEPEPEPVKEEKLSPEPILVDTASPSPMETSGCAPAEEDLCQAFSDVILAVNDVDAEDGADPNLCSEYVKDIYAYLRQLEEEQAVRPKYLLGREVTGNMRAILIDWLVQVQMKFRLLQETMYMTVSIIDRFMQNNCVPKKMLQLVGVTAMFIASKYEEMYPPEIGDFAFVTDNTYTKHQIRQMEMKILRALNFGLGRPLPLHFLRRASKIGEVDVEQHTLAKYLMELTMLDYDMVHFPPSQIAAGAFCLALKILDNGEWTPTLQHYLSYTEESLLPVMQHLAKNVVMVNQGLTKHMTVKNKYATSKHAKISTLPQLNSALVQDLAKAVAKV
T4 sequence (P50613 whole entry): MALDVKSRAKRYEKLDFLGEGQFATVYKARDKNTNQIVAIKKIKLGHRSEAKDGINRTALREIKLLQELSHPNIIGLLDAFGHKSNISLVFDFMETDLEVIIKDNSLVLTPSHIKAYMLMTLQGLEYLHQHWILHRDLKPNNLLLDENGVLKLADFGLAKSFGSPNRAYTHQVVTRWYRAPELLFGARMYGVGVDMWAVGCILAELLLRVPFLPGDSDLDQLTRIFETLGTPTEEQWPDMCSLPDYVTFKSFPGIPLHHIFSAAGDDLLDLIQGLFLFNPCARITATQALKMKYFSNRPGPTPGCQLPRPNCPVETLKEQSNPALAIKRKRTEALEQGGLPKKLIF
T4 sequence (P51946 whole entry partner): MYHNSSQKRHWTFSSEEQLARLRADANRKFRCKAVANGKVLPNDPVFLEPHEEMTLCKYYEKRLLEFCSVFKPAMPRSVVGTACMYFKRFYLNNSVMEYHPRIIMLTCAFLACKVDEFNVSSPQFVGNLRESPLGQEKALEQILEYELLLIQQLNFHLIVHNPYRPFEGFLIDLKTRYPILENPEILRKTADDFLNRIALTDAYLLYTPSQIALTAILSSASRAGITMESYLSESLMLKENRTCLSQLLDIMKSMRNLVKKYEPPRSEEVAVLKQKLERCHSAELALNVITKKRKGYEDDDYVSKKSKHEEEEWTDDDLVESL
T4 sequence (P51948 whole entry partner): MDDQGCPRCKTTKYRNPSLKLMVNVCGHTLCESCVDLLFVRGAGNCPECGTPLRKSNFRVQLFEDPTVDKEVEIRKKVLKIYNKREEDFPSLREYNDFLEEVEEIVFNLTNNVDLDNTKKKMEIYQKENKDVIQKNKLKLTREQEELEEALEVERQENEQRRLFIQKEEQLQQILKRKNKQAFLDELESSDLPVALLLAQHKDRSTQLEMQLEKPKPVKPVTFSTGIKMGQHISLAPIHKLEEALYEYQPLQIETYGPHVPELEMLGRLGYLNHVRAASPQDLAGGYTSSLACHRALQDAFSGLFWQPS
T3 sequence (Q00535 whole entry): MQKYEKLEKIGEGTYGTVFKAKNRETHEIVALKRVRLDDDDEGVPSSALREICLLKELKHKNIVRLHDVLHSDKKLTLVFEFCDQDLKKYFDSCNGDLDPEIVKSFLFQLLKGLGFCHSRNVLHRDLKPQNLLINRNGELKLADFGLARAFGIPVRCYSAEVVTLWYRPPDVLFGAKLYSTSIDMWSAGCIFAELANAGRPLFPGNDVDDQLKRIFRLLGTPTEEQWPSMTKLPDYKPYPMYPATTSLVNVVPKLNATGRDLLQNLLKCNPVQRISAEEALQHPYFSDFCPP
T3 sequence (Q15078 99-307 partner limits assumed): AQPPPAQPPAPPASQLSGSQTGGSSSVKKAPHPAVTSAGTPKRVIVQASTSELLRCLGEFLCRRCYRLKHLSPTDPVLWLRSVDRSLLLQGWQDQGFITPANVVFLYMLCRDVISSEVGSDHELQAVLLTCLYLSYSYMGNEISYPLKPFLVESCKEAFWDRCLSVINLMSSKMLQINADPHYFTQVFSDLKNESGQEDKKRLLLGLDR

| SMILES | IC50 (CDK1/Cyclin B) [nM] | IC50 (CDK2/Cyclin A) [nM] | IC50 (CDK5/p25) [nM] | CDK1/CDK7: Selectivity of CDK7 inhibition over CDK1 inhibition (CDK7/Cyclin H/MNAT1) | CDK2/CDK7: Selectivity of CDK7 inhibition over CDK2 inhibition (CDK7/Cyclin H/MNAT1) | CDK5/CDK7: Selectivity of CDK7 inhibition over CDK5 inhibition (CDK7/Cyclin H/MNAT1) | IC50 (CDK7/Cyclin H/MNAT1) [nM] | IC50 (HCT116) [nM] | IC50 (H460) [nM] | IC50 (MV4-11) [nM] |
| --- | --- | --- | --- | --- | --- | --- | --- | --- | --- | --- |
| CC(C)c1cnn2c(NC(C)c3ccccc3-n3ccc(CO)n3)nc(N3CCC(N)CC3)nc12 (racemic) [Compound 220] | > 1000 | > 1000 | > 1000 | A (A=greater than 200 fold) | A (A=greater than 200 fold) | A (A=greater than 200 fold) | < 100 | < 1000 | < 1000 | < 1000 |
| CC(C)c1cnn2c(NCc3ccccc3-c3ccc4ccccc4n3)nc(NCC(O)CCN)nc12 (racemic) [Compound 240] | > 1000 | > 1000 | > 1000 | A (A=greater than 200 fold) | A (A=greater than 200 fold) | A (A=greater than 200 fold) | < 100 | < 1000 | < 1000 | < 1000 |
| CC(C)C(=O)N1CCc2nn(-c3ccccc3CNc3nc(N4CCC(N)CC4)nc4c(C(C)C)cnn34)cc2C1 [Compound 148] | > 1000 | 100 to 1000 | < 100 | A (A=greater than 200 fold) | A (A=greater than 200 fold) | B (B=less than 200 fold, but greater than 20 fold) | < 100 | < 1000 | < 1000 | < 1000 |
| CNC(=O)c1cccc(-c2cnn(-c3ccccc3CNc3nc(N4CCC(N)CC4)nc4c(C(C)C)cnn34)c2)c1 [Compound 151] | 100 to 1000 | 100 to 1000 | 100 to 1000 | A (A=greater than 200 fold) | B (B=less than 200 fold, but greater than 20 fold) | B (B=less than 200 fold, but greater than 20 fold) | < 100 | < 1000 | < 1000 | < 1000 |
| CC(C)c1cnn2c(NCc3ccccc3-n3cc(C(=O)Nc4ccccc4)cn3)nc(N3CCC(N)CC3)nc12 [Compound 152] | > 1000 | 100 to 1000 | < 100 | A (A=greater than 200 fold) | B (B=less than 200 fold, but greater than 20 fold) | B (B=less than 200 fold, but greater than 20 fold) | < 100 | < 1000 | < 1000 | < 1000 |
| CC(C)c1cnn2c(NCc3ccccc3-n3cc(C(=O)NC4CCOCC4)cn3)nc(N3CCC(N)CC3)nc12 [Compound 155] | 100 to 1000 | 100 to 1000 | < 100 | A (A=greater than 200 fold) | B (B=less than 200 fold, but greater than 20 fold) | B (B=less than 200 fold, but greater than 20 fold) | < 100 | < 1000 | < 1000 | < 1000 |
| CC(C)c1cnn2c(NCc3ccccc3-n3cc(N4CCOCC4)cn3)nc(N3CCC(N)CC3)nc12 [Compound 156] | > 1000 | 100 to 1000 | 100 to 1000 | A (A=greater than 200 fold) | B (B=less than 200 fold, but greater than 20 fold) | B (B=less than 200 fold, but greater than 20 fold) | < 100 | < 1000 | < 1000 | < 1000 |
| CNC(=O)c1cc2cn(-c3ccccc3CNc3nc(N4CCC(N)CC4)nc4c(C(C)C)cnn34)nc2cc1F [Compound 157] | > 1000 | 100 to 1000 | 100 to 1000 | A (A=greater than 200 fold) | A (A=greater than 200 fold) | B (B=less than 200 fold, but greater than 20 fold) | < 100 | < 1000 | < 1000 | < 1000 |
| CC(C)c1cnn2c(NCc3ccccc3-n3cc4cc(O)ccc4n3)nc(N3CCC(N)CC3)nc12 [Compound 159] | > 1000 | 100 to 1000 | 100 to 1000 | A (A=greater than 200 fold) | B (B=less than 200 fold, but greater than 20 fold) | B (B=less than 200 fold, but greater than 20 fold) | < 100 | < 1000 | – | < 1000 |
| CC(C)c1cnn2c(NCc3ccccc3-n3cc4cc(C(=O)NC5CC5)ccc4n3)nc(N3CCC(N)CC3)nc12 [Compound 161] | 100 to 1000 | 100 to 1000 | 100 to 1000 | A (A=greater than 200 fold) | B (B=less than 200 fold, but greater than 20 fold) | B (B=less than 200 fold, but greater than 20 fold) | < 100 | < 1000 | < 1000 | < 1000 |
| CC(C)c1cnn2c(NCc3ccccc3-n3cc(N4CCN(C)CC4)cn3)nc(N3CCC(N)CC3)nc12 [Compound 179] | 100 to 1000 | 100 to 1000 | 100 to 1000 | B (B=less than 200 fold, but greater than 20 fold) | B (B=less than 200 fold, but greater than 20 fold) | B (B=less than 200 fold, but greater than 20 fold) | < 100 | < 1000 | < 1000 | < 1000 |
| CC(=O)NC1CCN(c2nc(NCc3c(Cl)cccc3-n3ccc(C(C)(C)O)n3)n3ncc(C(C)C)c3n2)CC1 [Compound 199] | > 1000 | > 1000 | > 1000 | A (A=greater than 200 fold) | A (A=greater than 200 fold) | A (A=greater than 200 fold) | < 100 | < 1000 | < 1000 | 1000 to 10000 |
| CC(C)c1cnn2c(NCc3c(Cl)cccc3-n3ccc(C(=O)N4CCOCC4)n3)nc(N3CCC(N)CC3)nc12 [Compound 200] | > 1000 | > 1000 | > 1000 | A (A=greater than 200 fold) | A (A=greater than 200 fold) | A (A=greater than 200 fold) | < 100 | < 1000 | < 1000 | < 1000 |
| CC(C)c1cnn2c(NCc3c(Cl)cccc3-n3ccc(C(=O)NC4CCOCC4)n3)nc(N3CCC(N)CC3)nc12 [Compound 201] | > 1000 | > 1000 | 100 to 1000 | A (A=greater than 200 fold) | A (A=greater than 200 fold) | B (B=less than 200 fold, but greater than 20 fold) | < 100 | < 1000 | < 1000 | < 1000 |

Source: patent publication US11945822B2, “Pyrazolo-triazine and/or pyrazolo-pxrimidine derivatives as selective inhibitor of cyclin dependent kinase” (QURIENT CO., LTD., priority 2018, dated 2024)
